This note sets out measurements from US11591336B2 (Relay Therapeutics, Inc., priority 2017, dated 2023).

By IC50 is commonly meant the point on the concentration scale where inhibition reaches its midpoint. Lower therefore signals greater potency in that assay.

Structures are written as SMILES. Where a name gives a salt, the structure may show the parent alone. Where only a bound is given, the exact number is not on record here.

The target of the experiment is SHP2 (Homo sapiens (Human), UniProt Q06124). Description: SHP2 Allosteric Inhibition Assay (DiFMUP prompt fluorescence). It is filed as biochemical. Conditions: 0.25 nM SHP2 activated with 0.5 μM peptide IRS1_pY1172(dPEG8)pY1222; substrate DiFMUP 100 μM; 25° C.
Sequence of SHP2 (Q06124 whole entry): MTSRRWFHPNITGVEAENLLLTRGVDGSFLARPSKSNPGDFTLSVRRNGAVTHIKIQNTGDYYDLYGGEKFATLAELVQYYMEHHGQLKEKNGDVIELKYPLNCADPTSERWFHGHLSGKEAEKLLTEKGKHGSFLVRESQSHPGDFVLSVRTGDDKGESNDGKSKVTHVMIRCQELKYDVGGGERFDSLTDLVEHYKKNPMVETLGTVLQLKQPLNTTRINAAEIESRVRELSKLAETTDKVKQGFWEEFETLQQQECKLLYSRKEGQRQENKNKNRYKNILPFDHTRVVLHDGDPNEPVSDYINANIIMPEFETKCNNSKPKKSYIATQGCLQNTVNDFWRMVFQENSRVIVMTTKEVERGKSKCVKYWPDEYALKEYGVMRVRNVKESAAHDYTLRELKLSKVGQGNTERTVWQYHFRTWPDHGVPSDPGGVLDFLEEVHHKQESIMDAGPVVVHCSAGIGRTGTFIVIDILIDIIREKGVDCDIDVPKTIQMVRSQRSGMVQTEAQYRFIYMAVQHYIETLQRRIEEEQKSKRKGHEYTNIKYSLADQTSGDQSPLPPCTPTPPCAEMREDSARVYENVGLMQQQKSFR
On to `C[C@@H]1C[C@@H](N)CCN1c1cnc2c(N3CCCc4ncccc43)n[nH]c2n1` (stereo in doubt) [Compound 74, rac-(2R,4S)-1-(3-(3,4-dihydro-1,5-naphthyridin-1(2H)-yl)-1H-pyrazolo[3,4-b]pyrazin-6-yl)-2-methylpiperidin-4-amine], for which the half-inhibitory concentration (IC50) is less than 1 µM. In the case of `N[C@@H]1COCC12CCN(c1cnc3c(Sc4cccnc4C(F)(F)F)n[nH]c3n1)CC2` [Compound 483, (S)-8-(3-((2-(trifluoromethyl)pyridin-3-yl)thio)-1H-pyrazolo[3,4-b]pyrazin-6-yl)-2-oxa-8-azaspiro[4.5]decan-4-amine], the IC50 was less than 1 µM. `CC1(N)CCN(c2cnc3c(N4CCCc5c(-c6nccs6)cccc54)n[nH]c3n2)CC1` [Compound 64] returned an IC50 of less than 1 µM. `CN1CCN(c2n[nH]c3nc(N4CCC(C)(CN)CC4)cnc23)c2ccccc21` [Compound 127] had an IC50 of less than 1 µM.

Consider `Cc1nnc(-c2cccc3c2CCCN3c2n[nH]c3nc(N4CCC5(CC4)CO[C@@H](C)[C@H]5N)cnc23)o1` [Compound 389], for which the IC50 is less than 1 µM.

`C[C@@H]1CCN(c2n[nH]c3nc(N4CCC(C)(CN)CC4)cnc23)c2ccc(-c3nccs3)nc21` (single isomer, unassigned) [Compound 196, hydrochloride]: the IC50 is less than 1 µM. On to `C[C@@H]1OCC2(CCN(c3cnc4c(N5CCCc6nc(-c7ccnnc7)ccc65)n[nH]c4n3)CC2)[C@@H]1N` [Compound 305], for which the IC50 was less than 1 µM. `CCC1(CN)CCN(c2cnc3c(N4CCCc5ncccc54)n[nH]c3n2)CC1` [Compound 98, (1-(3-(3,4-dihydro-1,5-naphthyridin-1(2H)-yl)-1H-pyrazolo[3,4-b]pyrazin-6-yl)-4-ethylpiperidin-4-yl)methanamine dihydrochloride] gave an IC50 of less than 1 µM.

As to `c1ccc(C2CCCCN2c2cnc3c(N4CCCc5ncccc54)n[nH]c3n2)cc1` (stereo not drawn) [Compound 162], the IC50 is not below 10 µM. `C[C@@H]1C[C@H](O)CCN1c1cnc2c(N3CCCc4ncccc43)n[nH]c2n1` (racemic) [Compound 95, (2R,4R)-1-(3-(3,4-dihydro-1,5-naphthyridin-1(2H)-yl)-1H-pyrazolo[3,4-b]pyrazin-6-yl)-2-methylpiperidin-4-ol] gave an IC50 not below 10 µM. For the compound `CC(=O)N1CC(N2CCN(c3n[nH]c4nc(N5CCC6(CC5)CO[C@@H](C)[C@H]6N)cnc34)c3ccc(C#N)cc32)C1` [Compound 471], the IC50 is less than 1 µM.

Consider `C[C@@H]1OCC2(CCN(c3cnc4c(N5CCCc6c5ccnc6N5CCOCC5)n[nH]c4n3)CC2)[C@@H]1N` [Compound 307], for which the IC50 was less than 1 µM.

Compound `C[C@@H]1OCC2(CCN(c3cnc4c(N5CCCc6c5cccc6N5CCCS5(=O)=O)n[nH]c4n3)CC2)[C@@H]1N` [Compound 392] returned an IC50 of less than 1 µM. `CC1(CN)CCN(c2cnc3c(N4CCCc5c4ccc(C#N)c5C4CC4)n[nH]c3n2)CC1` [Compound 122] came in with an IC50 of less than 1 µM. To `CC1(CN)CCN(c2cnc3c(Oc4ccc5[nH]ccc5c4)n[nH]c3n2)CC1` [Compound 505, (1-(3-((1H-indol-5-yl)oxy)-1H-pyrazolo[3,4-b]pyrazin-6-yl)-4-methylpiperidin-4-yl)methanamine] belongs 1 to 10 µM; to `C[C@@H]1OCC2(CCN(c3cnc4c(N5CCN(C6COC6)c6cc(C#N)ccc65)n[nH]c4n3)CC2)[C@@H]1N` [Compound 398], less than 1 µM; to `CCC1CCN(c2n[nH]c3nc(N4CCC(C)(CN)CC4)cnc23)c2ccccc21` (single isomer, unassigned) [Compound 103, hydrochloride], less than 1 µM.

On to `CNC(=O)c1ccc2c(n1)[C@H](C)CCN2c1n[nH]c2nc(N3CCC4(CC3)CO[C@@H](C)[C@H]4N)cnc12` [Compound 363, (8R)-5-{6-[(3S,4S)-4-amino-3-methyl-2-oxa-8-azaspiro[4.5]decan-8-yl]-1H-pyrazolo[3,4-b]pyrazin-3-yl}-N,8-dimethyl-5,6,7,8-tetrahydro-1,5-naphthyridine-2-carboxamide], for which the IC50 is less than 1 µM.
